Measurements reported in patent US10070651B2, “Synthesis and characterization of antimicrobial non-color forming silver-silica nanocomposite” (UNIVERSITY OF CENTRAL FLORIDA RESEARCH FOUNDATION, INC., priority 2015, dated 2018).

How the values were obtained:
[1] = tested on: bacteria; assay: Antimicrobial efficacy / bacterial viability assay, summary statements without named organism; type: cell-based; settings: equivalent concentrations of silver
Protocol: Such an enhanced antimicrobial efficacy, for instance, may be attributed to a sustained release of silver, for example, either as a nanoparticle and/or its ionic form. By way of example, antimicrobial efficacy of the silica-silver nanocomposite particle was evaluated relative to that of the silver nanoparticle (AgNP) lacking the dielectric material encapsulation and aqueous silver nitrate (AgNO3) solutions, respectively, at equivalent concentrations of silver (if present). Note that, the silver nanoparticle and the silver nitrate, in this example, have been used as a positive growth control, while the silica nanoparticle (SiNP) lacking silver components, has been used as a negative growth control.
In order to gain a better understanding of the antimicrobial efficacy of each material, we carried out a colony forming unit study over two time points, 1 and 4 hours. 96 well plates were prepared and incubated as described for M IC studies, and 10 μL samples from wells containing the concentrations of antimicrobial agents were taken at each time point. […] MH2 agar plates labeled by material and time point were then spotted with five 10 μL drops from each well at each concentration, allowed to dry in the sterile conditions of a biosafety cabinet, and then incubated 12-14 hours before colonies were counted. […]

[2] = Color passivation study on coated tiles (thermal and UV treatments); type: physicochemical
Protocol: White tiles were purchased from Home Depot, and scrubbed with acetone and Kim wipes to remove any oils which would inhibit materials from adhering well. After scrubbing and allowing the tiles to dry, about 50 μL samples of each material were spread over an area approximately 3cm by 3cm, and allowed to dry under ambient conditions. A picture was taken, and then tiles were exposed to long and shortwave UV radiation for 5 minutes, and briefly heated using a butane torch, and photographed again to observe the change in color of each material.

O=[N+]([O-])[O-].[Ag+] [AgNO3, silver nitrate]
antimicrobial efficacy, relative ranking [1]: most effective antimicrobial form of silver
color of coated tile after thermal and UV treatments ([2]; UV radiation for 5 minutes and brief heating with butane torch): dark brown/black color
color of coated tile before thermal and UV treatments ([2]; white tiles, dried coating): do not show formation of color
